Like-named read-outs stand apart in the source and are kept apart here.
What was measured:
Type in all cases: cell-based
Streptococcus sobrinus [1] = experiment: Minimum inhibitory concentration (MIC), serial two-fold dilution with resazurin test; settings: Streptococcus sobrinus, S. sobrinus
Streptococcus mutans = experiment: Minimum biofilm inhibitory concentration (MBIC), crystal violet staining; settings: S. mutans
Procedure: (§1) Group of examples No 4 - 6. Anti-biofilm activity of the substance or of the composition of substances was assessed from minimum biofilm inhibitory concentration (MBIC) and from the rate of biofilm formation on hydroxyapatite disks.
(§2) Reference strains Streptococcus mutans and S. Sobrinus were used as the bacterial models.
(§3) Example No 4. MBIC as the measure of the substance effect on the bacterial biofilm is equal to minimum concentration inhibiting the biofilm formation or disruption of already formed biofilm during 24 hour incubation.
(§4) MBIC of individual components of the composition, specifically, naringenin, guava leaf CO2 extract, and enzymes lysozyme and labiase can be determined according to the procedure: • 1) All stages of nutritive medium preparation, preparation and incubation of bacterial cultures in 96-well microtiter plates with the test composition of the substances added into nutritive medium were as described in Example 1. • 2) All controls for the culture growth, for purity of nutritive medium and for solvents were as described in Example 1. • 3) Incubate the plates at 37 °C for 24 ± 4 h without the use the orbital shaker. • 4) Stain the bacterial biofilm accumulated on bottom of the plate wells with crystal violet. For this purpose remove the planktonic culture from the plate wells after 24 h incubation and wash with two portions of phosphate-buffered saline (PBS, pH 7.4) to remove remaining planktonic culture. Then dry the plate for 12-15 hours. Add 100 µL of 0.5% crystal violet solution (Sigma-Aldrich, USA), dissolved in 96% ethanol followed by incubation for 20 minutes. After removal of crystal violet solution from the wells wash the plate with 3-4 portions of PBS. After drying add […] of 96% ethanol into the wells to elute the crystal violet, which has bound to the biofilm. • 5) Shake the plate on the orbital shaker for 2 minutes at 37 °C and then measure optical density (OD) at the wavelength of 550nm using multimodal microplate reader against the blank (the well, where the sterile medium LB was incubated and then exposed to all staining manipulations). Since the serial dilution method with 2-fold dilution steps is used for MBIC determination, the difference between the adjacent dilution is considered as non-significant, and MBIC is defined as the median value calculated for 5 independent biological replicates of the experiment. • 6) The following concentrations were tested: naringenin and guava leaf extract at concentrations 1.6, 0.8, 0.4, 0.2, 0.1, 0.05 mg/mL; lysozyme and labiase at concentrations 4.0, 2.0, 1.0, 0.5, 0.25, 0.125 mg/mL. Well-known antibacterial components were used as controls: chlorohexidine bigluconate at concentrations 64, 32, 16, 8, 4 µg/mL; zinc gluconate at concetrations 5.0, 2.5, 1.25, 0.6, 0.3, 0.15 mg/mL.

Streptococcus sobrinus [2] = experiment: as above; settings: S. sobrinus
Procedure: as §1, §2, §3, §4

MIC (Streptococcus sobrinus [1]; 24 h at 37 °C, read-out: MIC value in individual replicate Replicate 1): > 1600 µg/mL | MIC (Streptococcus sobrinus [1]; 24 h at 37 °C, read-out: MIC value in individual replicate Replicate 2): > 1600 µg/mL | MIC (Streptococcus sobrinus [1]; 24 h at 37 °C, read-out: MIC value in individual replicate Replicate 3): > 1600 µg/mL | MIC (Streptococcus sobrinus [1]; 24 h at 37 °C, read-out: MIC value in individual replicate Replicate 4): > 1600 µg/mL | MIC (Streptococcus sobrinus [1]; 24 h at 37 °C, read-out: MIC value in individual replicate Replicate 5): > 1600 µg/mL | MIC (Streptococcus sobrinus [1]; median of 5 replicates, read-out: MIC Median value): > 1600 µg/mL
SMILES: O=C1C[C@@H](c2ccc(O)cc2)Oc2cc(O)cc(O)c21 [Naringenin, naringenin]
MBIC in indicvdual replicates Replicate 1 (Streptococcus mutans; 24 h incubation): 0.8 mg/mL | MBIC in indicvdual replicates Replicate 2 (Streptococcus mutans; 24 h incubation): 0.8 mg/mL | MBIC in indicvdual replicates Replicate 3 (Streptococcus mutans; 24 h incubation): 0.8 mg/mL | MBIC in indicvdual replicates Replicate 4 (Streptococcus mutans; 24 h incubation): 0.4 mg/mL | MBIC in indicvdual replicates Replicate 5 (Streptococcus mutans; 24 h incubation): 0.8 mg/mL | MBIC Median value (Streptococcus mutans; median of 5 replicates): 0.8 mg/mL | MBIC in indicvdual replicates Replicate 1 (Streptococcus sobrinus [2]; 24 h incubation): >1.6 mg/mL | MBIC in indicvdual replicates Replicate 2 (Streptococcus sobrinus [2]; 24 h incubation): >1.6 mg/mL | MBIC in indicvdual replicates Replicate 3 (Streptococcus sobrinus [2]; 24 h incubation): >1.6 mg/mL | MBIC in indicvdual replicates Replicate 4 (Streptococcus sobrinus [2]; 24 h incubation): >1.6 mg/mL | MBIC in indicvdual replicates Replicate 5 (Streptococcus sobrinus [2]; 24 h incubation): >1.6 mg/mL | MBIC Median value (Streptococcus sobrinus [2]; median of 5 replicates): >1.6 mg/mL

Reference: patent EP4458353A1, “ANTICARIOGENIC SYNERGETIC COMPOSITION FOR ORAL CARE” (SkyLab AG, priority 2023, dated 2024)
